Laboratory results published in paper PMC9921329, “Semisynthetic Sesquiterpene Lactones Generated by the Sensibility of Glaucolide B to Lewis and Brønsted–Lowry Acids and Bases: Cytotoxicity and Anti-Inflammatory Activities” (Molecules, 2023).

What was measured:
[1] = system: SK-MEL-28 (human melanoma cell line); assay: MTT cell viability / cytotoxicity, human melanoma cells; format: cell-based; conditions: for Viability (%) SK-MEL-28 / CC50: MTT; for Viability (%) SK-MEL-28: 24 h incubation, mean ± SD (n = 3), test concentration not given; for CC50: 24 h, half-maximal cytotoxic concentration; for SI (selectivity index) SK-MEL-28: ratio of CC50 of non-tumoral HUVEC cells to CC50 of SK-MEL-28
Description: (§1) To evaluate the potential antitumoral activity of the compounds, the MTT [3-(4,5-dimethyl-2-thiazolyl)-2,5-diphenyl-2H-tetrazolium bromide] method was used to determine the cell viability of SK-MEL-28 (human melanoma cell line), NCI-H460 (human lung carcinoma cell line), SF295 (human glioblastoma cell line), and HUVEC (human umbilical vein endothelial cells) line. Cell viability analysis of murine macrophage J774A.1 was conducted using a resazurin-based cytotoxicity assay (Alamar blue®). All cell lines were acquired from the BCRJ (Rio de Janeiro Cell Bank, Federal University of Rio de Janeiro, Brazil). The cell lines were cultivated in RPMI-1640 or DMEM medium, supplemented with 1.5 g/L of sodium bicarbonate, 10 mM of HEPES, pH 7.4, 100 U/mL of penicillin G, 100 μg/mL of streptomycin, and 10% fetal calf serum at 37 °C in a humidified atmosphere consisting of 95% air and 5% CO2 cultures, and greater than 95% of viable cells in trypan blue exclusion tests were used for the experiments. Therefore, cells were seeded (1 × 10^4/well) in 96-well plates and incubated with increasing concentrations of the compounds for 24 h. After incubation, the former culture medium was replaced with a fresh culture medium with 5 mg/mL of MTT and with 0.1 mg/mL of resazurin for 2 h at 37 °C. MTT formazan crystals were dissolved in DMSO, and the absorbance of each well was measured at 540 nm, using a micro-well system reader. For the control group of each cell line, cells were incubated without the compounds and considered to have 100% cell viability. MTT formazan crystals were dissolved in DMSO, and absorbance was measured at 540 nm using a microplate reader (ELX800, Biotek, Winooski, VT, USA). The half-maximal cytotoxic concentration (CC50) values were calculated from a Hill concentration–response curve. Results were expressed as the mean ± SD of three experiments. The selectivity index (SI) was calculated via the ratio between the CC50 of non-tumoral cells and the tumoral cell lines. […] For the resazurin assay, fluorescence was measured at 1 h intervals using a plate multi-reader (Infinite Multireader m200 Tecan) at 530–590 nm. Nonlinear regression of each fraction versus percentage cell viability was performed to obtain a 10% toxicity concentration (a concentration causing 90% cell viability) using GraphPad Prism 8.0 software (GraphPad Software, San Diego, CA, USA).

[2] = system: SF295 (human glioblastoma cell line); assay: MTT cell viability, human glioblastoma cells; format: cell-based; conditions: 24 h incubation, mean ± SD (n = 3), test concentration not given
Description: as §1

[3] = system: NCI-H460 (human lung carcinoma cell line); assay: MTT cell viability, human lung carcinoma cells; format: cell-based; conditions: 24 h incubation, mean ± SD (n = 3), test concentration not given
Description: as §1

[4] = system: LPS-stimulated M1 macrophages J774A.1 (NOx); assay: Total nitrite nitrate (NOx) release from LPS-stimulated macrophages (Griess); format: cell-based, murine; conditions: for Anti-inflammatory activity, NOx release (in words): compound at CC10, LPS 10 μg/mL; for Reduction of NOx release vs control M1 cells (LPS+ group): compound at CC10, pre-treatment 15 min, LPS 10 μg/mL, 24 h
Description: (§2) The in vitro anti-inflammatory activity was performed in murine macrophage J774A.1 and analyzed after modifications to the protocol previously described by […] and coworkers. The evaluation consisted of measuring the production of nitrite through an indicator of NO synthesis in supernatants from LPS-activated macrophages. A number of 1 × 10^5 cells/well were seeded in 96-well plates for 24 h, after which time the culture medium was changed, and the CC10 concentration (Figure S70, found in the Supplementary Materials) of each compound was added to the medium containing DMEM supplemented with 10% FBS. After 15 min, macrophages were stimulated with 10 μg/mL of LPS and incubated for 24 h to obtain a proinflammatory M1-phenotype. Subsequently, supernatants were collected and total nitrite nitrate (NOx) was measured by adding 100 μL of Griess' reagent (1% sulfanilamide and 0.1% N-(1-naphthyl) ethylenediamine in 0.5% phosphoric acid). Absorbance was determined with a microplate reader (ELX800, BioTek, Winooski, VT, USA) at 540 nm. In addition, the proinflammatory cytokine IL-6 was determined using an enzyme-linked immunosorbent assay (ELISA) (BD Bioscience, San Jose, CA, USA) according to the manufacturer's instructions.

[5] = system: LPS-stimulated M1 macrophages J774A.1 (IL-6); assay: Interleukin-6 release from LPS-stimulated macrophages (ELISA); format: cell-based, murine; conditions: for Anti-inflammatory activity, IL-6 release (in words): compound at CC10, LPS 10 μg/mL; for Reduction of IL-6 release vs control M1 cells (LPS+ group): compound at CC10, pre-treatment 15 min, LPS 10 μg/mL, 24 h
Description: as §2

[6] = system: murine macrophage J774A.1; assay: Resazurin-based cytotoxicity assay (Alamar blue) in macrophages; format: cell-based; conditions: J774A.1, Figure S70
Description: To evaluate the potential antitumoral activity of the compounds, the MTT [3-(4,5-dimethyl-2-thiazolyl)-2,5-diphenyl-2H-tetrazolium bromide] method was used to determine the cell viability of SK-MEL-28 (human melanoma cell line), NCI-H460 (human lung carcinoma cell line), SF295 (human glioblastoma cell line), and HUVEC (human umbilical vein endothelial cells) line. Cell viability analysis of murine macrophage J774A.1 was conducted using a resazurin-based cytotoxicity assay (Alamar blue®). All cell lines were acquired from the BCRJ (Rio de Janeiro Cell Bank, Federal University of Rio de Janeiro, Brazil). […] MTT formazan crystals were dissolved in DMSO, and the absorbance of each well was measured at 540 nm, using a micro-well system reader. […] MTT formazan crystals were dissolved in DMSO, and absorbance was measured at 540 nm using a microplate reader (ELX800, Biotek, Winooski, VT, USA). The half-maximal cytotoxic concentration (CC50) values were calculated from a Hill concentration–response curve. Results were expressed as the mean ± SD of three experiments. The selectivity index (SI) was calculated via the ratio between the CC50 of non-tumoral cells and the tumoral cell lines. […] For the resazurin assay, fluorescence was measured at 1 h intervals using a plate multi-reader (Infinite Multireader m200 Tecan) at 530–590 nm. […]

[7] = MTT cytotoxicity, non-tumoral endothelial cells; format: cell-based, human; conditions: human, HUVEC cells (non-tumoral), pH 7.4
Description: as §1

[8] = system: HUVEC (human umbilical vein endothelial cells); assay: MTT cytotoxicity, non-tumoral endothelial cells; format: cell-based; conditions: 24 h
Description: as §1

Row | Molecule | Viability (%) SK-MEL-28 [1] | Viability (%) SF295 [2] | Viability (%) NCI-H460 [3] | also measured
1 | CC(=O)OCC1=C2C(OC(C)=O)CC(C)(OC(C)=O)C(=O)CCC3(C)OC3C2OC1=O (stereo not drawn) [Compound 1, glaucolide B] | 82.6 ± 4.1% | 88.0 ± 4.8% | 85.1 ± 4.6% | 
2 | COCC1=C2C(OC(C)=O)CC(C)(OC(C)=O)C3(O)CCC(C)(O)C(OC(C)=O)C23OC1=O (stereo not drawn) [Compound 2, 13-O-methylvernojalcanolide-8-O-acetate] | 87.1 ± 2.6% | 86.8 ± 6.3% | 91.8 ± 3.6% | 
3 | CC(=O)OCC1=C2C(OC(C)=O)CC(C)(OC(C)=O)C3(O)CCC(C)(O)C(OC(C)=O)C23OC1=O (stereo not drawn) [Compound 3, 1,4-dihydroxy-5,8,10,13-tetraacetoxycadin-7(11)-en-6,12-olide] | 91.1 ± 1.7% | 86.1 ± 2.3% | 88.4 ± 3.4% | 
4 | C=C1C(=O)OC2C(OC(C)=O)C3(C)CC4C12C(OC(C)=O)CC(C)(OC(C)=O)C4(O)O3 (stereo not drawn) [Compound 4, 5,8-diacetoxy-2-epi-vernomargolide-1,4-cyclosemiacetal] | 96.4 ± 6.9% | 94.7 ± 1.1% | 100.2 ± 2.7% | 
5 | C=C1C(=O)OC2C(OC(C)=O)C3(C)CC4C12C(OC(C)=O)CC(C)(O)C4(O)O3 (stereo not drawn) [Compound 5, 5,8,10-triacetoxy-2-epi-vernomargolide-1,4-cyclosemiacetal] | 95.3 ± 4.1% | 95.6 ± 3.9% | 100.3 ± 5.5% | 
6 | C=C1C(=O)OC2C(OC(C)=O)C3(C)CC4C12C(OC(C)=O)CC1(C)OC(C)(C)OC41O3 (stereo not drawn) [Compound 6, 5,8-diacetoxy-2-epi-vernomargolide-1,4-cycloacetal-1,10-acetonide] | 85.9 ± 4.0% | 90.4 ± 3.7% | 90.4 ± 1.5% | 
7 | CC(=O)OCC1=C2C(OC(C)=O)CC(C)(OC(C)=O)C3(O)CCC(C)(O3)C(O)C2OC1=O (stereo not drawn) [Compound 7, 5-hydroxy-hirsutinolide] | 76.2 ± 7.5% | 86.7 ± 3.8% | 89.1 ± 3.9% | 
8 | CC(=O)OCC1=C2C(OC(C)=O)CC(C)(OC(C)=O)C3(O)CCC(C)(O3)C(OC(C)=O)C2OC1=O (stereo not drawn) [Compound 7a, 5-acetoxy-hirsutinolide] | 17.1 ± 3.3% | 86.9 ± 4.3% | 74.6 ± 1.3% | Anti-inflammatory activity, NOx release (in words) [4]: strongly reduced; Reduction of NOx release vs control M1 cells (LPS+ group) [4]: ~77%; CC50 ([1]; Homo sapiens, SK-MEL-28): 5 µM; SI (selectivity index) SK-MEL-28 [1]: 2.5; Anti-inflammatory activity, IL-6 release (in words) [5]: strongly reduced; Reduction of IL-6 release vs control M1 cells (LPS+ group) [5]: ~77%; Cytotoxicity against macrophages (in words) [6]: less cytotoxicity against macrophages; CC50 at 24 h [7]: 12.7 µM
9 | CC(=O)OCC1=C2/C(=C\C3(C)CC=C(O3)C(C)(OC(C)=O)CC2OC(C)=O)OC1=O (stereo not drawn) [Compound 7b, 8,10,13-triacetoxy-1(4)-epoxy-germacra-1(2),5(6),7(11)-trien-6(12)-olide] | 16.0 ± 2.6% | 83.3 ± 1.2% | 73.2 ± 1.0% | CC50 ([1]; Homo sapiens, SK-MEL-28): 11.2 µM; SI (selectivity index) SK-MEL-28 [1]: 2.5; CC50 at 24 h [7]: 27.8 µM
10 | C=C1C(=O)OC2(O)C(=O)C3(C)CCC(=O)C(C)(OC(C)=O)CC(OC(C)=O)C12O3 (stereo not drawn) [Compound 7c.1, 8,10-diacetoxy-4(7)-epoxy-6-hydroxy-1,5-oxo-germacr-11(13)-en-6(12)-olide] | 77.3 ± 0.3% | 87.0 ± 4.7% | 88.7 ± 6.7% | Anti-inflammatory activity, NOx release (in words) [4]: strongly reduced; Reduction of NOx release vs control M1 cells (LPS+ group) [4]: ~77%; Anti-inflammatory activity, IL-6 release (in words) [5]: strongly reduced; Reduction of IL-6 release vs control M1 cells (LPS+ group) [5]: ~77%; Cytotoxicity against macrophages (in words) [6]: less cytotoxicity against macrophages
11 | CC(=O)OCC1=C2C(OC(C)=O)CC(C)(OC(C)=O)C3(O)CCC(C)(O3)C(=O)C2(O)OC1=O (stereo not drawn) [Compound 7c] | 79.2 ± 6.4% | 88.6 ± 4.8% | 85.7 ± 1.6% | 
12 | C=C1C(=O)OC2C(O)C3(C)CCC(OC(C)=O)(O3)C3(C)CC(OC(C)=O)C12O3 (stereo not drawn) [Compound 8, 1,8-diacetoxy-1(4),7(10)-diepoxy-5-hydroxygermacr-11(13)-en-6(12)-olide] | 66.9 ± 3.5% | 82.0 ± 4.7% | 87.3 ± 1.6% | 
13 | C=C1C(=O)OC2C(OC(C)=O)C3(C)CCC(OC(C)=O)(O3)C3(C)CC(OC(C)=O)C12O3 (stereo not drawn) [Compound 8a, 1,5,8-triacetoxy-1(4),7(10)-diepoxy-germacr-11(13)-en-6(12)-o1ide] | 5.3 ± 0.3% | 67.3 ± 4.0% | 53.1 ± 0.0% | CC50 ([1]; Homo sapiens, SK-MEL-28): 3.1 µM; SI (selectivity index) SK-MEL-28 [1]: 3.0; CC50 at 24 h [7]: 9 µM
14 | C=C1C(=O)OC2C(O)C(C)(O)CC3C(=O)C(C)(O)CC(OC(C)=O)C132 (stereo not drawn) [Compound 9, 8-acetoxy-vernomargolide] | 74.5 ± 4.9% | 85.2 ± 2.8% | 84.9 ± 0.4% | 
15 | C=C1C(=O)OC2C(OC(C)=O)C(C)(O)CC3C(=O)C(C)(O)CC(OC(C)=O)C132 (stereo not drawn) [Compound 9a, 5,8-diacetoxy-vernomargolide] | 73.8 ± 3.1% | 85.9 ± 5.0% | 84.8 ± 0.9% | 
16 | C=C(C)C(=O)OC1CC(C)(O)C2(O)CCC(C)(/C=C3/OC(=O)C(COC(C)=O)=C31)O2 (stereo not drawn) [Compound 10, piptocarphin A, reference compound] | 23.1 ± 4.2% | 93.2 ± 3.2% | 104.8 ± 1.6% | CC50 ([1]; Homo sapiens, SK-MEL-28): 6.7 µM; SI (selectivity index) SK-MEL-28 [1]: 1.9; CC50 at 24 h [7]: 12.5 µM
17 | CC(=O)OCC1=C2/C(=C\C3(C)CCC(O)(O3)C(C)(O)CC2OC(C)=O)OC1=O (stereo not drawn) [Compound 12, diacetylpiptocarphol, reference compound] | 9.0 ± 0.5% | 80.4 ± 3.3% | 63.8 ± 6.9% | CC50 ([1]; Homo sapiens, SK-MEL-28): 3.8 µM; SI (selectivity index) SK-MEL-28 [1]: 3.3; CC50 at 24 h [7]: 12.6 µM
18 | glaucolide A [Compound 11, reference compound] | 56.3 ± 1.4% | 91.8 ± 3.3% | 95.1 ± 4.6% | CC50 [1]: 14.6 µM; CC50 [8]: 20.4 µM
